Results from PubChem BioAssay (NCI).
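Values below derive from 48-hour exposures of cells grown in 96-well plates, with endpoints linearly interpolated between the two concentrations bracketing the appropriate inhibition level. TGI denotes the concentration required for complete inhibition of growth.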

Columns and labels:
Experiment in all cases: DTP human tumour cell line panel, 48 h
786-0 renal = test system: 786-0 renal
A498 renal = test system: A498 renal
A549 NSCLC = test system: A549 NSCLC
ACHN renal = test system: ACHN renal
BT-549 breast = test system: BT-549 breast
CAKI-1 renal = test system: CAKI-1 renal
CCRF-CEM leukemia = test system: CCRF-CEM leukemia
COLO 205 colon = test system: COLO 205 colon
DU-145 prostate = test system: DU-145 prostate
EKVX NSCLC = test system: EKVX NSCLC
HCC-2998 colon = test system: HCC-2998 colon
HCT-116 colon = test system: HCT-116 colon
HCT-15 colon = test system: HCT-15 colon
HL-60(TB) leukemia = test system: HL-60(TB) leukemia
HOP-62 NSCLC = test system: HOP-62 NSCLC
HOP-92 NSCLC = test system: HOP-92 NSCLC
HS 578T breast = test system: HS 578T breast
HT29 colon = test system: HT29 colon
IGROV1 ovarian = test system: IGROV1 ovarian
K-562 leukemia = test system: K-562 leukemia
KM12 colon = test system: KM12 colon
LOX IMVI melanoma = test system: LOX IMVI melanoma
M14 melanoma = test system: M14 melanoma
MALME-3M melanoma = test system: MALME-3M melanoma
MCF7 breast = test system: MCF7 breast
MDA-MB-231 breast = test system: MDA-MB-231 breast
MDA-MB-435 = test system: MDA-MB-435
MDA-N = test system: MDA-N
MOLT-4 leukemia = test system: MOLT-4 leukemia
NCI-H226 lung = test system: NCI-H226 lung
NCI-H23 lung = test system: NCI-H23 lung
NCI-H460 lung = test system: NCI-H460 lung
NCI-H522 lung = test system: NCI-H522 lung
NCI/ADR-RES ovarian = test system: NCI/ADR-RES ovarian
OVCAR-3 ovarian = test system: OVCAR-3 ovarian
OVCAR-4 ovarian = test system: OVCAR-4 ovarian
OVCAR-5 ovarian = test system: OVCAR-5 ovarian
OVCAR-8 ovarian = test system: OVCAR-8 ovarian
PC-3 prostate = test system: PC-3 prostate
RPMI-8226 leukemia = test system: RPMI-8226 leukemia
SF-268 CNS = test system: SF-268 CNS
SF-295 CNS = test system: SF-295 CNS
SF-539 CNS = test system: SF-539 CNS
SK-MEL-2 melanoma = test system: SK-MEL-2 melanoma
SK-MEL-28 melanoma = test system: SK-MEL-28 melanoma
SK-MEL-5 melanoma = test system: SK-MEL-5 melanoma
SK-OV-3 ovarian = test system: SK-OV-3 ovarian
SN12C renal = test system: SN12C renal
SNB-19 CNS = test system: SNB-19 CNS
SNB-75 CNS = test system: SNB-75 CNS
SW-620 colon = test system: SW-620 colon
T-47D breast = test system: T-47D breast
TK-10 renal = test system: TK-10 renal
U251 CNS = test system: U251 CNS
UACC-257 melanoma = test system: UACC-257 melanoma
UACC-62 melanoma = test system: UACC-62 melanoma
UO-31 renal = test system: UO-31 renal
RXF 393 renal = test system: RXF 393 renal
SR leukemia = test system: SR leukemia

Structure (SMILES): COc1cc(C2SCC(=O)N2c2ccc(-c3ccc(-n4c(-c5ccccc5)nc5ccccc5c4=O)cc3)cc2)ccc1O (stereo not given)
- TGI (786-0 renal): > 100 µM
- TGI (A498 renal): > 100 µM
- TGI (A549 NSCLC): > 100 µM
- TGI (ACHN renal): > 100 µM
- TGI (BT-549 breast): > 100 µM
- TGI (CAKI-1 renal): > 100 µM
- TGI (CCRF-CEM leukemia): > 100 µM
- TGI (COLO 205 colon): > 100 µM
- TGI (DU-145 prostate): > 100 µM
- TGI (EKVX NSCLC): > 100 µM
- TGI (HCC-2998 colon): > 100 µM
- TGI (HCT-116 colon): > 100 µM
- TGI (HCT-15 colon): > 100 µM
- TGI (HL-60(TB) leukemia): > 100 µM
- TGI (HOP-62 NSCLC): > 100 µM
- TGI (HOP-92 NSCLC): 74.1 µM
- TGI (HS 578T breast): > 100 µM
- TGI (HT29 colon): > 100 µM
- TGI (IGROV1 ovarian): > 100 µM
- TGI (K-562 leukemia): > 100 µM
- TGI (KM12 colon): > 100 µM
- TGI (LOX IMVI melanoma): > 100 µM
- TGI (M14 melanoma): > 100 µM
- TGI (MALME-3M melanoma): > 100 µM
- TGI (MCF7 breast): > 100 µM
- TGI (MDA-MB-231 breast): > 100 µM
- TGI (MDA-MB-435): > 100 µM
- TGI (MDA-N): > 100 µM
- TGI (MOLT-4 leukemia): > 100 µM
- TGI (NCI-H226 lung): > 100 µM
- TGI (NCI-H23 lung): > 100 µM
- TGI (NCI-H460 lung): > 100 µM
- TGI (NCI-H522 lung): > 100 µM
- TGI (NCI/ADR-RES ovarian): > 100 µM
- TGI (OVCAR-3 ovarian): > 100 µM
- TGI (OVCAR-4 ovarian): > 100 µM
- TGI (OVCAR-5 ovarian): > 100 µM
- TGI (OVCAR-8 ovarian): > 100 µM
- TGI (PC-3 prostate): > 100 µM
- TGI (RPMI-8226 leukemia): > 100 µM
- TGI (SF-268 CNS): > 100 µM
- TGI (SF-295 CNS): > 100 µM
- TGI (SF-539 CNS): > 100 µM
- TGI (SK-MEL-2 melanoma): > 100 µM
- TGI (SK-MEL-28 melanoma): > 100 µM
- TGI (SK-MEL-5 melanoma): > 100 µM
- TGI (SK-OV-3 ovarian): > 100 µM
- TGI (SN12C renal): > 100 µM
- TGI (SNB-19 CNS): > 100 µM
- TGI (SNB-75 CNS): 49.8 µM
- TGI (SW-620 colon): > 100 µM
- TGI (T-47D breast): 71.5 µM
- TGI (TK-10 renal): > 100 µM
- TGI (U251 CNS): > 100 µM
- TGI (UACC-257 melanoma): > 100 µM
- TGI (UACC-62 melanoma): > 100 µM
- TGI (UO-31 renal): > 100 µM

Structure (SMILES): COC(=O)C1=C(C(=O)OC)SC(=C2c3ccsc3-c3sccc32)S1
- TGI (786-0 renal): 56.8 µM
- TGI (A498 renal): 71.4 µM
- TGI (A549 NSCLC): > 100 µM
- TGI (ACHN renal): > 100 µM
- TGI (BT-549 breast): > 100 µM
- TGI (CAKI-1 renal): > 100 µM
- TGI (CCRF-CEM leukemia): > 100 µM
- TGI (COLO 205 colon): > 100 µM
- TGI (DU-145 prostate): > 100 µM
- TGI (EKVX NSCLC): > 100 µM
- TGI (HCC-2998 colon): > 100 µM
- TGI (HCT-116 colon): > 100 µM
- TGI (HCT-15 colon): > 100 µM
- TGI (HL-60(TB) leukemia): 58.7 µM
- TGI (HOP-62 NSCLC): 55.1 µM
- TGI (HS 578T breast): 52 µM
- TGI (HT29 colon): > 100 µM
- TGI (IGROV1 ovarian): > 100 µM
- TGI (K-562 leukemia): > 100 µM
- TGI (KM12 colon): > 100 µM
- TGI (LOX IMVI melanoma): > 100 µM
- TGI (M14 melanoma): > 100 µM
- TGI (MALME-3M melanoma): > 100 µM
- TGI (MCF7 breast): > 100 µM
- TGI (MDA-MB-231 breast): > 100 µM
- TGI (MDA-MB-435): > 100 µM
- TGI (MDA-N): > 100 µM
- TGI (MOLT-4 leukemia): > 100 µM
- TGI (NCI-H226 lung): > 100 µM
- TGI (NCI-H23 lung): 56.2 µM
- TGI (NCI-H460 lung): > 100 µM
- TGI (NCI/ADR-RES ovarian): > 100 µM
- TGI (OVCAR-3 ovarian): > 100 µM
- TGI (OVCAR-5 ovarian): > 100 µM
- TGI (OVCAR-8 ovarian): > 100 µM
- TGI (PC-3 prostate): > 100 µM
- TGI (RPMI-8226 leukemia): > 100 µM
- TGI (RXF 393 renal): 41.6 µM
- TGI (SF-268 CNS): 57.3 µM
- TGI (SF-295 CNS): 53.5 µM
- TGI (SF-539 CNS): > 100 µM
- TGI (SK-MEL-28 melanoma): > 100 µM
- TGI (SK-MEL-5 melanoma): > 100 µM
- TGI (SK-OV-3 ovarian): 49.3 µM
- TGI (SN12C renal): > 100 µM
- TGI (SNB-19 CNS): > 100 µM
- TGI (SNB-75 CNS): 35.6 µM
- TGI (SR leukemia): > 100 µM
- TGI (SW-620 colon): > 100 µM
- TGI (TK-10 renal): 57.8 µM
- TGI (U251 CNS): 98.5 µM
- TGI (UACC-257 melanoma): > 100 µM
- TGI (UACC-62 melanoma): > 100 µM
- TGI (UO-31 renal): > 100 µM

Structure (SMILES): O=C1CSC(=S)N1c1ccc(F)cc1F
- TGI (786-0 renal): > 100 µM
- TGI (A498 renal): > 100 µM
- TGI (A549 NSCLC): > 100 µM
- TGI (ACHN renal): > 100 µM
- TGI (BT-549 breast): > 100 µM
- TGI (CAKI-1 renal): > 100 µM
- TGI (CCRF-CEM leukemia): 76.4 µM
- TGI (COLO 205 colon): > 100 µM
- TGI (DU-145 prostate): > 100 µM
- TGI (EKVX NSCLC): > 100 µM
- TGI (HCC-2998 colon): > 100 µM
- TGI (HCT-116 colon): > 100 µM
- TGI (HCT-15 colon): > 100 µM
- TGI (HOP-62 NSCLC): > 100 µM
- TGI (HOP-92 NSCLC): > 100 µM
- TGI (HS 578T breast): > 100 µM
- TGI (HT29 colon): > 100 µM
- TGI (IGROV1 ovarian): > 100 µM
- TGI (KM12 colon): > 100 µM
- TGI (LOX IMVI melanoma): > 100 µM
- TGI (M14 melanoma): > 100 µM
- TGI (MALME-3M melanoma): > 100 µM
- TGI (MCF7 breast): 51.5 µM
- TGI (MDA-MB-231 breast): > 100 µM
- TGI (MDA-MB-435): > 100 µM
- TGI (MDA-N): > 100 µM
- TGI (NCI-H226 lung): > 100 µM
- TGI (NCI-H23 lung): > 100 µM
- TGI (NCI-H460 lung): > 100 µM
- TGI (NCI-H522 lung): 47.3 µM
- TGI (NCI/ADR-RES ovarian): > 100 µM
- TGI (OVCAR-3 ovarian): > 100 µM
- TGI (OVCAR-4 ovarian): > 100 µM
- TGI (OVCAR-8 ovarian): > 100 µM
- TGI (PC-3 prostate): > 100 µM
- TGI (RPMI-8226 leukemia): 66.4 µM
- TGI (RXF 393 renal): > 100 µM
- TGI (SF-268 CNS): > 100 µM
- TGI (SF-295 CNS): > 100 µM
- TGI (SF-539 CNS): > 100 µM
- TGI (SK-MEL-2 melanoma): > 100 µM
- TGI (SK-MEL-28 melanoma): > 100 µM
- TGI (SK-MEL-5 melanoma): 54.6 µM
- TGI (SK-OV-3 ovarian): > 100 µM
- TGI (SN12C renal): > 100 µM
- TGI (SNB-19 CNS): > 100 µM
- TGI (SNB-75 CNS): > 100 µM
- TGI (SW-620 colon): > 100 µM
- TGI (T-47D breast): > 100 µM
- TGI (TK-10 renal): > 100 µM
- TGI (U251 CNS): > 100 µM
- TGI (UACC-257 melanoma): > 100 µM
- TGI (UACC-62 melanoma): > 100 µM
- TGI (UO-31 renal): > 100 µM
